Consider 23 compounds from patent US8518931B2, “Compounds and compositions as kinase inhibitors” (IRM LLC, priority 2008, dated 2013).

T1 sequence (Q9UM73 with tags, fused parts or gaps): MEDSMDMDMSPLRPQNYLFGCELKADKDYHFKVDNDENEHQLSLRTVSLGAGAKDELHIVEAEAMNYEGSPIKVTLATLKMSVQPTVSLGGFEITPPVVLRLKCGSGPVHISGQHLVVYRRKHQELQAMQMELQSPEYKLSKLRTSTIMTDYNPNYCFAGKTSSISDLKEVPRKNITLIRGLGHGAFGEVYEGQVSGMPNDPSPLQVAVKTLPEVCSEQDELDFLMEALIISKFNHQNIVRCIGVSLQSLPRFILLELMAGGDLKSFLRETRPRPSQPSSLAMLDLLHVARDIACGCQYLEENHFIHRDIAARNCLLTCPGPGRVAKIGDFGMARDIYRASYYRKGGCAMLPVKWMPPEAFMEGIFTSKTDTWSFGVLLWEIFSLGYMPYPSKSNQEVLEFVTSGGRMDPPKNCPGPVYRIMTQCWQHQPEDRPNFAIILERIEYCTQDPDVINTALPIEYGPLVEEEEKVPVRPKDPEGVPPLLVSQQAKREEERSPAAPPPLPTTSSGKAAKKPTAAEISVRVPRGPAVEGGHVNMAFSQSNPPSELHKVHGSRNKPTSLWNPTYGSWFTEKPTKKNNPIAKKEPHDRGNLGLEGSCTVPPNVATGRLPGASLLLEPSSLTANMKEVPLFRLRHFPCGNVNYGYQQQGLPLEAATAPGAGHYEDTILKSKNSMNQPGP

This assay concerns the target T1, NPM-ALK (Homo sapiens, UniProt Q9UM73).
T1 construct: nucleophosmin (NPM, NPM1; human P06748) fusion partner; expressed in transfected cells; host or cells: murine BaF3 cells (DSMZ), transfected with pCIneo (Promega) coding for NPM-ALK and selected with G418; the other entry of the earlier key: Npm1 (Q61937, Nucleophosmin)
The experiment in a line: NPM-ALK BaF3 assay (growth inhibition of BaF3-NPM-ALK cells). Type of assay: cell-based. The conditions noted are these: human NPM-ALK overexpressing murine BaF3 cells. The text has this: The expression of NPM-ALK may be achieved by transfecting the BaF3 cell line with an expression vector pClneo™ (Promega Corp., Madison Wis., USA) coding for NPM-ALK and subsequent selection of G418 resistant cells. Non-transfected BaF3 cells depend on IL-3 for cell survival. In contrast, NPM-ALK expressing BaF3 cells (named BaF3-NPM-ALK hereinafter) can proliferate in the absence of IL-3 because they obtain proliferative signal through NPM-ALK kinase. Putative inhibitors of the NPM-ALK kinase therefore abolish the growth signal and may result in antiproliferative activity. The antiproliferative activity of putative inhibitors of the NPM-ALK kinase can however be overcome by addition of IL-3, which provides growth signals through an NPM-ALK independent mechanism. An analogous cell system using FLT3 kinase has also been described (see, E Weisberg et al. Cancer Cell; 1, 433-443 (2002)).
The inhibitory activity of the compounds of the invention may be determined as follows. In general, BaF3-NPM-ALK cells (15,000/microtitre plate well) are transferred to 96-well microtitre plates. Test compounds dissolved in dimethyl sulfoxide (DMSO) are added in a series of concentrations (dilution series) in such a manner that the final concentration of DMSO is not greater than 1% (v/v). After the addition, the plates are incubated for two days during which the control cultures without test compound are able to undergo two cell-division cycles. The growth of the BaF3-NPM-ALK cells is measured by means of YOPRO™ staining [T Idziorek et al. J. Immunol. Methods; 185: 249-258 (1995)]: 25 μl of lysis buffer comprising 20 mM sodium citrate, pH 4.0, 26.8 mM sodium chloride, 0.4% NP40, 20 mM EDTA and […] to each well. Cell lysis is completed within 60 min at room temperature and total amount of YOPRO™ bound to DNA is determined by measurement using the Cytofluor II 96-well reader (PerSeptive Biosystems) with the following settings: Excitation (nm) 485/20 and Emission (nm) 530/25.
IC50 values may be determined by a computer-aided system using the formula: IC50=[(ABStest−ABSstart)/(ABScontrol−ABSstart)]×100·(ABS=absorption)
In general, compounds of the invention have IC50 values from 1 nM to 10 μM. In some examples, compounds of the invention have IC50 values from 0.01 μM to 5 μM. In other examples, compounds of the invention have IC50 values from 0.01 μM to 1 μM, or more particularly from 1 nM to 1 μM.
Table 1 describes representative compounds of the invention, prepared following the procedures described above. IC50 values are as measured in an NPM-ALK BaF3 assay.
`COc1cc(C2CCN(C(=O)[C@@H]3COCCN3)CC2)c(C)cc1Nc1nc(Nc2ccccc2S(=O)(=O)C(C)C)n2nccc2n1` [Ex 71] yielded an IC50 of 22 nM.
In the case of `COc1cc(C2CCNCC2)c(C)cc1Nc1nc(Nc2ccccc2S(=O)(=O)C(C)C)n2nccc2n1` [Ex 4] it was 38 nM; in that of `COc1cc(C2CCN(C(=O)[C@H](C)N)CC2)c(C)cc1Nc1nc(Nc2ccccc2S(=O)(=O)C(C)C)n2nccc2n1` [Ex 67], 40 nM; in that of `COc1cc(C2CCN(C(=O)CN3CC[C@H](O)C3)CC2)c(C)cc1Nc1nc(Nc2ccccc2S(=O)(=O)C(C)C)n2nccc2n1` [Ex 77], 36 nM.
Under `CNC(=O)CCN1CCC(c2cc(OC)c(Nc3nc(Nc4ccccc4S(=O)(=O)C(C)C)n4nccc4n3)cc2C)CC1` [Ex 90] stands 13 nM; under `CN[C@@H](C)C(=O)N1CCC(c2cc(OC)c(Nc3nc(Nc4ccccc4S(=O)(=O)C(C)C)n4nccc4n3)cc2C)CC1` [Ex 24], 21 nM.
Under `CNC1(C(=O)N2CCC(c3cc(OC)c(Nc4nc(Nc5ccccc5S(=O)(=O)C(C)C)n5nccc5n4)cc3C)CC2)CC1` [Ex 26] stands 25 nM; under `CCCNCC(=O)N1CCC(c2cc(OC)c(Nc3nc(Nc4ccccc4S(=O)(=O)C(C)C)n4nccc4n3)cc2C)CC1` [Ex 103], 16 nM; under `Cc1cc(C2CCN(CCS(C)(=O)=O)CC2)c(C)cc1Nc1nc(Nc2ccccc2S(=O)(=O)C(C)C)n2nccc2n1` [Ex 45], 62 nM.
In turn, `COc1cc(C2CCOCC2)c(C)cc1Nc1nc(Nc2ccccc2S(=O)(=O)C(C)C)n2nccc2n1` [Ex 10] registered an IC50 of 138 nM.
In the case of `Cc1cc(C2CCN(C(=O)CCN(C)C)CC2)ccc1Nc1nc(Nc2ccccc2S(=O)(=O)C(C)C)n2nccc2n1` [Ex 49] it was 129 nM; in that of `COc1cc(C2CCN(C(=O)CN3CCC3)CC2)c(C)cc1Nc1nc(Nc2ccccc2S(=O)(=O)C(C)C)n2nccc2n1` [Ex 20], 26 nM; in that of `COc1cc(C2CCN(C(=O)[C@@H](C)N3CCC3)CC2)c(C)cc1Nc1nc(Nc2ccccc2S(=O)(=O)C(C)C)n2nccc2n1` [Ex 81], 26 nM.
Under `CNC(C)(C)C(=O)N1CCC(c2cc(OC)c(Nc3nc(Nc4ccccc4S(=O)(=O)C(C)C)n4nccc4n3)cc2C)CC1` [Ex 27] stands 44 nM; under `CC(C)S(=O)(=O)c1ccccc1Nc1nc(Nc2ccc(C3CCN(CC(N)=O)CC3)cc2)nc2ccnn12` [Ex 91], 128 nM.
Under `COc1cc(C2CCN(C(=O)[C@@H](C)N(C)CCO)CC2)c(C)cc1Nc1nc(Nc2ccccc2S(=O)(=O)C(C)C)n2nccc2n1` [Ex 98] stands 13 nM.
`COc1cc(C2CCN(C(=O)CCN(C)C)CC2)c(C)cc1Nc1nc(Nc2ccccc2S(=O)(=O)C(C)C)n2nccc2n1` [Ex 25] came in with a half-maximal inhibitory concentration (IC50) of 22 nM.
The compound `COc1cc(C2CCN(C(=O)CN3CCOCC3)CC2)c(C)cc1Nc1nc(Nc2ccccc2S(=O)(=O)C(C)C)n2nccc2n1` [Ex 88] gave an IC50 of 47 nM.
In the case of `Cc1cc(C2CCN(C(=O)CCN(C)C)CC2)c(C)cc1Nc1nc(Nc2ccccc2S(=O)(=O)C(C)C)n2nccc2n1` [Ex 48] it was 59 nM; in that of `COc1cc(C2CCN(C(=O)[C@H](C)NCCO)CC2)c(C)cc1Nc1nc(Nc2ccccc2S(=O)(=O)C(C)C)n2nccc2n1` [Ex 65], 37 nM.
In the case of `CC(C)S(=O)(=O)c1ccccc1Nc1nc(Nc2ccc(C3CCN(C(=O)CN4CCC4)CC3)cc2)nc2ccnn12` [Ex 93] it was 132 nM; in that of `CC(C)S(=O)(=O)c1ccccc1Nc1nc(Nc2ccc3c(c2)CCN(CCS(C)(=O)=O)C3)nc2ccnn12` [Ex 40], 136 nM.
In the case of `COc1cc(C2CCN(C(=O)C3CCCN3)CC2)c(C)cc1Nc1nc(Nc2ccccc2S(=O)(=O)C(C)C)n2nccc2n1` (centres unmarked) [Ex 31] it was 36 nM.
